Experimental data from article PMC11861427, “Functional Characterization of a Female-Biased Chemoreceptor of the Codling Moth (Cydia pomonella) Responding to Aldehydes and Other Volatile Compounds” (Journal of Chemical Ecology, 2025).
Values belong to the compound of their own block, whether it stands above or below them.

Legend:
CpomOR22 [1] = system: T1, CpomOR22; experiment: SSR dose response and GC-SSR in transgenic Drosophila ab3A neurons; set-up: species or system Cydia pomonella
T1 construct: gene OR22

CpomOR22 [2] = system: T2, CpomOR22; experiment: two-electrode voltage clamp, Xenopus oocytes, dose response; also GC-SSR; format: cell-based, Cydia pomonella
T2 construct: gene OR22; with CpomOrco

CpomOR22 [3] = system: T2, CpomOR22; experiment: two-electrode voltage clamp, Xenopus oocytes, dose response; format: cell-based, Cydia pomonella
From the text: two-electrode voltage clamp, Xenopus oocytes, dose response on CpomOR22 | CpomOR22 dose responsiveness to undecanal and γ-undecalactone across five orders of magnitude

EC50 (CpomOR22 [1]): 2.903 ± 1.709 µg
SMILES: CCCC/C=C\CCCCC=O [(Z)−6-undecenal]

EC50 (CpomOR22 [2]): 16.7 µM
SMILES: CCCCCCCCCCC=O [undecanal]

SMILES: CCCCCCCC1CCC(=O)O1 (stereo not drawn) [γ-undecalactone]
EC50 (CpomOR22 [3]): 8.4 µM
